Our source for the IC50 values is patent US20250270208A1, “BICYCLIC HETEROCYCLES AS MRGPRX2 ANTAGONISTS” (Incyte Corporation, priority 2023, published 2025).

What all share (format): cell-based
Assay [1] concerns the target T1, MRGPRX2 (Homo sapiens, UniProt Q96LB1).
T1 sequence (Q96LB1 1-330): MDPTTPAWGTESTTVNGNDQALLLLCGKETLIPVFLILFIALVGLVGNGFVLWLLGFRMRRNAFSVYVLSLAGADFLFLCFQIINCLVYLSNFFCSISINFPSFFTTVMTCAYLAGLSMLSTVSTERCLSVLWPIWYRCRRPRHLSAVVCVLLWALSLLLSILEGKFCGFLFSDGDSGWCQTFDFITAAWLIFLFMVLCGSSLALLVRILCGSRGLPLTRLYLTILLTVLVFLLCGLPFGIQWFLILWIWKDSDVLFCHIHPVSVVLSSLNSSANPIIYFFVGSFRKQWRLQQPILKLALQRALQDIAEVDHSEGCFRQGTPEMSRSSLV
In words: MRGPRX2 FLIPR calcium mobilization assay. Set-up: host or cells: CHO-K1. As to conditions: CHO-K1 cells stably expressing human MRGPRX2; Ca2+ release; agonist Cortistatin-14 at EC80. On the procedure: Chinese hamster ovary (CHO-K1) cells stably expressing human MRGPRX2 were purchased from Genescript (Piscataway, NJ). The cells were maintained in culture medium (Ham's F-12K) containing 10% (v/v) FBS, 200 μg/mL Zeocin, 100 units/mL penicillin G and 100 μg/mL streptomycin (Life Technologies, Carlsbad, CA). For the assay, the cells were harvested and resuspended with culture medium without Zeocin before plating at 8000 cells per well in 20 μL in 384-well black clear bottom cell culture plates (VWR, Radnor, PA). After 24 hour culture at 37° C. and 5% CO2, the cells were loaded with 20 μL/well of calcium dye (FLIPR Calcium 6 Assay Kit, Molecular Devices, San Jose, CA) diluted in loading buffer (1× Hank's Balanced Salt Solution (HBSS), 5 mM probenecid, 20 mM 4-(2-hydroxyethyl)-1-piperazineethanesulfonic acid (HEPES), pH 7.4, VWR, Radnor, PA) followed with 45 min incubation at 37° C. and 40 min. at r.t. in the dark. Cells were then treated with the addition of 10 uL/well test compounds with a range of increasing concentrations diluted in the assay buffer (1×HBSS, 20 mM HEPES, pH 7.4, VWR, Radnor, PA) with FLIPR Penta (Molecular Devices. San Jose, CA) and incubated for 30 min. at r.t. Ca^2+ release was measured with FLIPR Penta with 10 s basal fluorescence measurement, then 12.5 μL of 5× agonist Cortistatin-14 (Tocris, Minneapolis, MN) at final concentration corresponding to the EC80 were added followed with continued fluorescence signal monitoring for an additional 110 s. The base line adjusted (median of first 10 s base line) max value of the Relative Fluorescence Unit (RFU) was plotted against compound concentrations. Wells with no compound were served as the positive controls, and wells with high concentration of reference antagonist were used as negative controls. IC50 curves were globally fitted with 3- or 4-parameter Hill equation in a Genedata Screener (Genedata Basel, Switzerland).

The target in assay [2] is T1, MRGPRX2. The experiment in a line: MRGPRX2 IP1 HTRF assay. Set-up: host or cells: CHO-K1. As to conditions: CHO-K1 cells stably expressing human MRGPRX2; IP1 accumulation; agonist Cortistatin 14 1 μM. On the procedure:
This assay measures compound inhibition of myo-Inositol 1 phosphate (IP1) accumulation in CHO-K1 cells. Chinese hamster ovary (CHO-K1) cells stably expressing human MRGPRX2 were purchased from GenScript (Piscataway, NJ).
For the HTRF IP1 determination, an IP-One GqKit (Perkin Elmer Cisbio, Waltham, MA), which includes all reagents and buffers in this protocol, was used. The cells were maintained in culture medium (Ham's F-12K) containing 10% (v/v) FBS, and 200 μg/mL Zeocin. For the assay, the cells were harvested and resuspended in culture medium with 2% FBS and without Zeocin, then were passed through a 40 μm filter. Cells were added at 20000 cells in a 5 μL/well to a 384-well white small volume cell culture plate (Greiner VWR, Radnor, PA) which contained 50 nL/well of test compound serially diluted at a selected concentration range in DMSO. 5 μL/well of prepared 2× Stimulation Buffer 2 was then added to plates and was incubated at 37° C. with 5% CO2 for 1 h. 5 μL/well of agonist Cortistatin 14 (Bio-TechneR&D Systems, Minneapolis, MN) in 1× Stimulation Buffer 2, for a 1 μM final concentration, was then added to plates and incubated at 37° C. with 5% CO2 for 1 h. 6 μL/well of 1:20 diluted Detection Reagent Mix (d2 and Cryptate) was added to the plates and incubated for 1 h in the dark. Plates were read on the PHERAstar microplate reader (BMG Labtech Cary, NC) to determine the HTRF ratio of the acceptor and donor emission signals. The IP1 concentrations were calculated from a standard curve following the IP-One GQ kit instructions. Wells with DMSO only and wells with high concentration of reference antagonist were used as controls for normalization. Compound IC50 curves were globally fitted with 3- or 4-parameter Hill equation in a Genedata Screener (Genedata Basel, Switzerland).
A general note: In TR-FRET formats the signal depends on donor and acceptor labels being close together.

Assay [3] addresses T1, MRGPRX2. In words: MRGPRX2 β-Arrestin assay. Details: host or cells: PathHunter CHO-K1. The note with it: PathHunter CHO-K1 MRGPRX2 β-Arrestin cell line; agonist Cortistatin 14 0.25 μM. The source says:
This assay measures compound inhibition of β-Arrestin recruitment, which is part of the G protein-independent pathway that results from the ligand-activated GPCR phosphorylation by specific GPCR kinases. The PathHunter CHO-K1 MRPGRX2 β-Arrestin Cell line stably expressing ProLink tagged MRGPRX2 and Enzyme Acceptor Tagged β-Arrestin was purchased from Eurofins DiscoverX, (Fremont, CA).
The cells were maintained in culture medium from the Europhins DiscoverX Cell Culture Kit-107 which includes FBS, hygromycin B and G418. For the assay, the cells were harvested and were resuspended with Cell Plating Reagent 2 (Eurofins DiscoverX). Cells were added 10000 cells in 25 μL/well to a 384-well black cell culture plate (Greiner VWR, Radnor, PA) which contained 125 nL/well of compound at a selected serially diluted concentration range or DMSO. The plate was incubated at 37° C. with 5% CO2 for 1 h. 2 μL/well of agonist Cortistatin 14 was diluted in Protein Dilution Buffer, (Eurofins DiscoverX) for a final concentration of 0.25 μM, was added and the plate was incubated at 37° C. with 5% CO2 for 90 min. 14 μL/well of Detection Reagent Mix (PathHunter Detection Kit, Eurofins DiscoverX) was added to the plates and further incubated for 1 h in the dark. Plates were read on the PHERAstar microplate reader (BMG Labtech Cary, NC) measuring luminescence 0.1 to 1 s per well. Data was normalized using DMSO only wells and wells with high concentration of reference antagonist as controls. Compound IC50 curves were globally fitted with 3- or 4-parameter Hill equation in a Genedata Screener (Genedata Basel, Switzerland).

One may read the IC50 as the concentration needed to halve the response being measured. Take `Cn1cc2c(N[C@@H]3CCC[C@H](Nc4cc(C(F)(F)F)nc5ccc(Cl)cc45)C3)nccc2n1` [Example 1, (1S,3R)-N^1-(6-Chloro-2-(trifluoromethyl)quinolin-4-yl)-N^3-(2-methyl-2H-pyrazolo[4,3-c]pyridin-4-yl)cyclohexane-1,3-diamine]: the half-maximal inhibitory concentration (IC50) fell in the range of 0.1 to 100 nM at MRGPRX2 [1], 100 to 1000 nM at MRGPRX2 [2] and 0.1 to 100 nM at MRGPRX2 [3].

As to `Cn1ncc2ccnc(N[C@@H]3CCC[C@H](Nc4cc(C(F)(F)F)nc5ccc(Cl)cc45)C3)c21` [Example 2, (1S,3R)-N^1-(6-Chloro-2-(trifluoromethyl)quinolin-4-yl)-N^3-(1-methyl-1H-pyrazolo[3,4-c]pyridin-7-yl)cyclohexane-1,3-diamine], the IC50 lay in the range of 0.1 to 100 nM at MRGPRX2 [1] and 100 to 1000 nM on MRGPRX2 [2].

Consider `FC(F)(F)c1cc(N[C@H]2CCC[C@@H](Nc3cc(N4CCOCC4)ccn3)C2)c2cc(Cl)ccc2n1` [Example 3, (1S,3R)-N^1-(6-Chloro-2-(trifluoromethyl)quinolin-4-yl)-N^3-(4-morpholinopyridin-2-yl)cyclohexane-1,3-diamine], for which the IC50 on MRGPRX2 [1] and on MRGPRX2 [2] was 100 to 1000 nM throughout.

As to `FC(F)(F)c1cc(N[C@H]2CCC[C@@H](Nc3nccc4cnccc34)C2)c2cc(Cl)ccc2n1` [Example 6, (1S,3R)-N^1-(6-Chloro-2-(trifluoromethyl)quinolin-4-yl)-N^3-(2,6-naphthyridin-1-yl)cyclohexane-1,3-diamine], the results for the IC50 on MRGPRX2 [1] and at MRGPRX2 [2] were 0.1 to 100 nM and 100 to 1000 nM, respectively.

`Cn1cnc2ccnc(N[C@H]3CC[C@@H](Nc4cc(C(F)(F)F)nc5ccc(Cl)cc45)CC3)c21` [Example 7, (1s,4s)-N^1-(6-Chloro-2-(trifluoromethyl)quinolin-4-yl)-N^4-(3-methyl-3H-imidazo[4,5-c]pyridin-4-yl)cyclohexane-1,4-diamine]: the IC50 at MRGPRX2 [1] and at MRGPRX2 [2] was 0.1 to 100 nM in each case.

With `Cn1cnc2ncnc(N[C@@H]3CCC[C@H](Nc4cc(C(F)(F)F)nc5ccc(Cl)cc45)C3)c21` [Example 8, (1S,3R)-N^1-(6-Chloro-2-(trifluoromethyl)quinolin-4-yl)-N^3-(7-methyl-7H-purin-6-yl)cyclohexane-1,3-diamine], the 50% inhibitory concentration (IC50) on MRGPRX2 [1] and on MRGPRX2 [2] was 0.1 to 100 nM throughout.

`FC(F)(F)c1cc(N[C@H]2CCC[C@@H](Nc3ccccn3)C2)c2cc(Cl)ccc2n1` [Example 12, (1S,3R)-N^1-(6-Chloro-2-(trifluoromethyl)quinolin-4-yl)-N^3-(pyridin-2-yl)cyclohexane-1,3-diamine]: the IC50 lay within 0.1 to 100 nM on MRGPRX2 [1] and 100 to 1000 nM at MRGPRX2 [2].

As for `FC(F)(F)c1cc(N[C@H]2CCC[C@@H](Nc3nccc4nccn34)C2)c2cc(Cl)ccc2n1` [Example 18, (1S,3R)-N^1-(6-Chloro-2-(trifluoromethyl)quinolin-4-yl)-N^3-(imidazo[1,2-c]pyrimidin-5-yl)cyclohexane-1,3-diamine], the IC50 on MRGPRX2 [2] and at MRGPRX2 [3] was 0.1 to 100 nM in each case.

For the molecule `FC(F)(F)c1cc(N[C@H]2CCC[C@@H](Nc3ccnc4ncccc34)C2)c2cc(Cl)ccc2n1` [Example 27, (1S,3R)-N^1-(6-Chloro-2-(trifluoromethyl)quinolin-4-yl)-N^3-(1,8-naphthyridin-4-yl)cyclohexane-1,3-diamine], the IC50 fell in the range of 0.1 to 100 nM on MRGPRX2 [1] and 100 to 1000 nM on MRGPRX2 [2].

As to `Fc1ccc2nc(C(F)(F)F)cc(N[C@H]3CCC[C@@H](Nc4nccn5cncc45)C3)c2c1` [Example 28, (1S,3R)-N^1-(6-fluoro-2-(trifluoromethyl)quinolin-4-yl)-N^3-(imidazo[1,5-a]pyrazin-8-yl)cyclohexane-1,3-diamine], the IC50 on MRGPRX2 [1] and at MRGPRX2 [2] was 0.1 to 100 nM throughout.

Consider `FC(F)(F)c1cc(N[C@H]2CCC[C@@H](Nc3nccn4cncc34)C2)c2cc(Br)ccc2n1` [Example 29, (1S,3R)-N^1-(6-bromo-2-(trifluoromethyl)quinolin-4-yl)-N^3-(imidazo[1,5-a]pyrazin-8-yl)cyclohexane-1,3-diamine], for which the IC50 on MRGPRX2 [1] and on MRGPRX2 [2] was 0.1 to 100 nM each time.

Regarding `FC(F)(F)c1cc(N[C@H]2CCC[C@@H](Nc3nccn4nccc34)C2)c2cc(Cl)ccc2n1` [Example 30, (1S,3R)-N^1-(6-Chloro-2-(trifluoromethyl)quinolin-4-yl)-N^3-(pyrazolo[1,5-a]pyrazin-4-yl)cyclohexane-1,3-diamine], the IC50 at MRGPRX2 [1] and at MRGPRX2 [2] was 0.1 to 100 nM each time.

As for `Cn1ncc2c(N[C@@H]3CCC[C@H](Nc4cc(C(F)(F)F)nc5ccc(Cl)cc45)C3)ncnc21` [Example 31], the IC50 on MRGPRX2 [1] and on MRGPRX2 [2] was 0.1 to 100 nM throughout.

Consider `Cn1c(N[C@@H]2CCC[C@H](Nc3cc(C(F)(F)F)nc4ccc(Cl)cc34)C2)nc2cnccc21` [Example 32, (1S,3R)-N^1-(6-Chloro-2-(trifluoromethyl)quinolin-4-yl)-N^3-(1-methyl-1H-imidazo[4,5-c]pyridin-2-yl)cyclohexane-1,3-diamine], for which the IC50 at MRGPRX2 [1] and on MRGPRX2 [2] was 0.1 to 100 nM throughout.

In the case of `FC(F)(F)c1cc(N[C@H]2CCC[C@@H](Nc3nnc4n3CCC4)C2)c2cc(Cl)ccc2n1` [Example 34, (1S,3R)-N^1-(6-Chloro-2-(trifluoromethyl)quinolin-4-yl)-N^3-(6,7-dihydro-5H-pyrrolo[2,1-c][1,2,4]triazol-3-yl)cyclohexane-1,3-diamine], the IC50 on MRGPRX2 [1] was in the range of 0.1 to 100 nM; on MRGPRX2 [2], 100 to 1000 nM.
